Measurements: PubChem BioAssay AID1259411 (Chemical Carcinogenesis Research Information System (CCRIS), 2018)
Calls of active or inactive are those of the source. How the calls were made is not given here.

System: rodent carcinogenicity bioassays, tumor incidence
Assay: CCRIS carcinogenicity studies
From the text: The CCRIS database contains chemical records with carcinogenicity, mutagenicity, tumor promotion, and tumor inhibition test results. It was developed by the National Cancer Institute (NCI). Data are derived from studies cited in primary journals, current awareness tools, NCI reports, and other sources. Test results have been reviewed by experts in carcinogenesis and mutagenesis.
CCRIS provides historical information from the years 1985 - 2011. It is no longer updated.
This is an archive assay for CCRIS carcinogenicity studies.

What does the source list for `Cc1cc(-c2ccc(N)c(C)c2)ccc1N`?
carcinogen call (Species: MOUSE, Strain/Sex: BALB/FEMALE, Route: ORAL, Dose: 0, 5, 9, 18, 35, 70, 140 PPM IN DRINKING WATER 7 D/WK FOR DURATION OF STUDY (STUDY DURATION: 112 WK), Dose: 0, 5, 9, 18, 35, 70, 140 PPM IN DRINKING WATER 7 D/WK FOR DURATION OF STUDY (STUDY DURATION: 112 WK)): inactive; negative; carcinogen call (Species: MOUSE, Strain/Sex: BALB/MALE, Route: ORAL, Dose: 0, 5, 9, 18, 35, 70, 140 PPM IN DRINKING WATER 7 D/WK FOR DURATION OF STUDY (STUDY DURATION: 112 WK), Dose: 0, 5, 9, 18, 35, 70, 140 PPM IN DRINKING WATER 7 D/WK FOR DURATION OF STUDY (STUDY DURATION: 112 WK), Tumor Site: Type of Lesion: LUNG: ALVEOLAR CELL ADENOMA AND ADENOCARCINOMA): active; positive; carcinogen call (Species: RAT, Route: SUBCUTANEOUS, Tumor Site: Type of Lesion: EAR (ZYMBAL GLAND)): active; positive; carcinogen call (Species: RAT, Strain/Sex: F344/FEMALE, Route: ORAL, Dose: 0, 30, 70, 150 PPM IN DRINKING WATER 7 D/WK FOR 60-61 WK (STUDY DURATION: 60-61 WK), Dose: 0, 30, 70, 150 PPM IN DRINKING WATER 7 D/WK FOR 60-61 WK (STUDY DURATION: 60-61 WK)): active; positive; carcinogen call (Species: RAT, Strain/Sex: F344/MALE, Route: ORAL, Dose: 0, 30, 70, 150 PPM IN DRINKING WATER 7 D/WK FOR 60-61 WK (STUDY DURATION: 60-61 WK), Dose: 0, 30, 70, 150 PPM IN DRINKING WATER 7 D/WK FOR 60-61 WK (STUDY DURATION: 60-61 WK), Tumor Site: Type of Lesion: PREPUTIAL GLAND: ADENOMA, ADENOMA OR CARCINOMA, LARGE INTESTINE: ADENOMATOUS POLYP, ADENOCARCINOMA, SMALL INTESTINE: ADE, Tumor Site: Type of Lesion: PREPUTIAL GLAND: ADENOMA, ADENOMA OR CARCINOMA, LARGE INTESTINE: ADENOMATOUS POLYP, ADENOCARCINOMA, SMALL INTESTINE: ADE): active; positive

Which carcinogen call (Species: MOUSE, Strain/Sex: SWISS/FEMALE, Route: DERMAL, Dose: 0, 100 MG/KG IN 100 µL ACETONE 3/WK FOR 52 WK (STUDY DURATION: 52 WK)) does the source give for `CNC(=O)Oc1cccc2ccccc12` here?
Its carcinogen call is “inactive; negative”.

And the carcinogen call (Species: Mouse, Strain/Sex: CD-1/Female (70/group), Route: Oral, Dose: 0, 100, 1,000, 8,000 ppm in feed for 104 wk, Dose: 0, 100, 1,000, 8,000 ppm in feed for 104 wk, Tumor Site: Type of Lesion: BLOOD VESSELS: Hemangiosarcoma and hemangioma (high dose only). LIVER: Hepatocellular adenoma and carcinoma (high dose o)?
The carcinogen call was “active; positive (purity 99.3%; study details not given in source; mtd may have been exc”.

What about the carcinogen call (Species: Mouse, Strain/Sex: CD-1/Male (70/group), Route: Oral, Dose: 0, 100, 1,000, 8,000 ppm in feed for 104 wk, Dose: 0, 100, 1,000, 8,000 ppm in feed for 104 wk, Tumor Site: Type of Lesion: BLOOD VESSELS: Hemangiosarcoma and hemangioma (all doses). KIDNEY: Renal tubular cell adenoma and carcinoma (high dose o) of the same compound?
Its carcinogen call is “active; positive (purity 99.3%; study details not given in source; neoplastic lesions co”.

What about the carcinogen call (Species: RAT, Strain/Sex: SWISS, Route: GAVAGE, Dose: 0, 30 MG/KG BW, 1/D FOR UP TO 22 MO, Tumor Site: Type of Lesion: INTESTINES: FIBROSARCOMA, BONE: OSTEOSARCOMA) of the same compound?
The carcinogen call was “active; positive”.

And the carcinogen call (Species: Rat, Strain/Sex: Sprague-Dawley/Male (50/control and high-dose group and 40 per low-and mid-dose group), Route: Oral, Dose: 0, 250, 1,500, 7,500 ppm in feed for 104 wk, Dose: 0, 250, 1,500, 7,500 ppm in feed for 104 wk, Tumor Site: Type of Lesion: URINARY BLADDER: papilloma and carcinoma at highest dose. KIDNEY: one transitional cell carcinoma. LIVER: adenoma. THYRO)?
The carcinogen call was “active; positive at the high dose level (purity 99%; study details not given in source)”.

`CC(=O)N(O[C@@H]1O[C@H](C(=O)O)[C@@H](O)[C@H](O)[C@H]1O)c1ccc2c(c1)Cc1ccccc1-2` was tested. Which carcinogen call (Species: RAT, Strain/Sex: F344/MALE, Route: INJECTION, Dose: 0, 1 UMOL IN 0.5 ML OF SOLUTION CONTAINING 0.4 ML PHOSPHATE BUFFERED SALINE/ GENTAMYCIN (PH 7) AND 0.1 ML DMSO INJECTED) did it give?
The carcinogen call was “inactive; negative”.

What about the carcinogen call (Species: RAT, Strain/Sex: F344/MALE, Route: INJECTION, Dose: 0, 1 UMOL IN 0.5 ML OF SOLUTION CONTAINING 0.4 ML PHOSPHATE BUFFERED SALINE/ GENTAMYCIN (PH 8) AND 0.1 ML DMSO INJECTED) of the same compound?
Its carcinogen call is “inactive; negative”.

`Cc1ccc2ncccc2c1` was tested. Which carcinogen call (Species: RAT, Strain/Sex: F344/MALE,FEMALE, Route: ORAL, Dose: 0.05% IN DIET FOR 2 YR) did it give?
The carcinogen call was “inactive; negative”.

For `CC(C)NCCCC1(C(N)=O)c2ccccc2-c2ccccc21`, which carcinogen call (Species: MOUSE, Strain/Sex: B6C3F1/FEMALE, Route: ORAL, Dose: 0, 0.02, 0.04, 0.08% IN DIET FOR APPROXIMATE DAILY DOSES OF 0, 27, 53, 113 MG/KG (STUDY DURATION: 2 YR), Dose: 0, 0.02, 0.04, 0.08% IN DIET FOR APPROXIMATE DAILY DOSES OF 0, 27, 53, 113 MG/KG (STUDY DURATION: 2 YR)) is on record?
The carcinogen call was “inactive; negative”.

And the carcinogen call (Species: MOUSE, Strain/Sex: B6C3F1/MALE, Route: ORAL, Dose: 0, 0.02, 0.04, 0.08% IN DIET FOR APPROXIMATE DAILY DOSES OF 0, 27, 53, 113 MG/KG (STUDY DURATION: 2 YR), Dose: 0, 0.02, 0.04, 0.08% IN DIET FOR APPROXIMATE DAILY DOSES OF 0, 27, 53, 113 MG/KG (STUDY DURATION: 2 YR))?
The carcinogen call was “inactive; negative”.

What about the carcinogen call (Species: RAT, Strain/Sex: F344/FEMALE, Route: ORAL, Dose: 0, 0.02, 0.04, 0.08% IN DIET FOR APPROXIMATE DAILY DOSES OF 0, 9, 18, 37 MG/KG (STUDY DURATION: 2 YR), Dose: 0, 0.02, 0.04, 0.08% IN DIET FOR APPROXIMATE DAILY DOSES OF 0, 9, 18, 37 MG/KG (STUDY DURATION: 2 YR)) of the same compound?
The carcinogen call was “inactive; negative”.

And the carcinogen call (Species: RAT, Strain/Sex: F344/MALE, Route: ORAL, Dose: 0, 0.02, 0.04, 0.08% IN DIET FOR APPROXIMATE DAILY DOSES OF 0, 9, 18, 37 MG/KG (STUDY DURATION: 2 YR), Dose: 0, 0.02, 0.04, 0.08% IN DIET FOR APPROXIMATE DAILY DOSES OF 0, 9, 18, 37 MG/KG (STUDY DURATION: 2 YR))?
The carcinogen call was “inactive; negative”.

Which carcinogen call (Species: MOUSE, Strain/Sex: BALB/CCRGL/FEMALE, Route: SUBCUTANEOUS, Dose: 40 UG DAILY FOR 5 D BEGINNING 16 HR AFTER BIRTH (STUDY DURATION: 20 MO), Tumor Site: Type of Lesion: MAMMARY GLAND: CARCINOMA (4/30), CERVICOVAGINAL TRACT: CARCINOMA (4/30)) does the source give for `Oc1ccc(-c2cc(Cl)c(Cl)c(Cl)c2Cl)cc1` here?
Its carcinogen call is “active; positive”.

And the carcinogen call (Species: MOUSE, Strain/Sex: BALB/CCRGL/FEMALE, Route: SUBCUTANEOUS, Dose: 400 UG DAILY FOR 5 D BEGINNING 16 HR AFTER BIRTH (STUDY DURATION: 20 MO), Tumor Site: Type of Lesion: CERVICOVAGINAL TRACT: CARCINOMA (5/24))?
The carcinogen call was “active; positive”.

How did the carcinogen call (Species: MOUSE, Strain/Sex: B6C3F1/FEMALE, Route: GAVAGE, Dose: 0, 20, 40 MG/KG IN CORN OIL 5 D/WK FOR 104 WK (STUDY DURATION: 105 WK), Dose: 0, 20, 40 MG/KG IN CORN OIL 5 D/WK FOR 104 WK (STUDY DURATION: 105 WK)) turn out when `COc1c(Cl)c(Cl)c(Cl)c(Cl)c1Cl` was run?
Its carcinogen call is “inactive; negative”.

What about the carcinogen call (Species: MOUSE, Strain/Sex: B6C3F1/MALE, Route: GAVAGE, Dose: 0, 20, 40 MG/KG IN CORN OIL 5 D/WK FOR 104 WK (STUDY DURATION: 105 WK), Dose: 0, 20, 40 MG/KG IN CORN OIL 5 D/WK FOR 104 WK (STUDY DURATION: 105 WK), Tumor Site: Type of Lesion: ADRENAL MEDULLA: BENIGN PHEOCHROMOCYTOMA, LIVER: HEMANGIOSARCOMA) of the same compound?
The carcinogen call was “active; positive”.

And the carcinogen call (Species: RAT, Strain/Sex: F344/FEMALE, Route: GAVAGE, Dose: 0, 20, 40 MG/KG IN CORN OIL 5 D/WK FOR 103 WK (STUDY DURATION: 104 WK), Dose: 0, 20, 40 MG/KG IN CORN OIL 5 D/WK FOR 103 WK (STUDY DURATION: 104 WK), Tumor Site: Type of Lesion: ADRENAL MEDULLA: BENIGN PHEOCHROMOCYTOMA)?
Its carcinogen call is “equivocal”.

What about the carcinogen call (Species: RAT, Strain/Sex: F344/MALE, Route: GAVAGE, Dose: 0, 10, 20, 40 MG/KG IN CORN OIL 5 D/WK FOR 103 WK (STUDY DURATION: 104 WK), Dose: 0, 10, 20, 40 MG/KG IN CORN OIL 5 D/WK FOR 103 WK (STUDY DURATION: 104 WK), Tumor Site: Type of Lesion: ADRENAL MEDULLA: BENIGN PHEOCHROMOCYTOMA) of the same compound?
The carcinogen call was “active; positive”.
